According to ChEMBL document CHEMBL1201862, “PubChem BioAssay data set” (2004):
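Where inhibition never reached the appropriate level, the endpoint shown equals the highest concentration tested. Otherwise, values were interpolated linearly from a five-concentration, 48-hour dose response in 96-well plates. GI50 is the concentration that inhibits growth by half.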 Activity calls are given as the source filed them. No stated cut-off is given here; in the data, active = GI50 up to about 1.1 µM and inactive = higher.

Key:
Assay in all cases: inhibition of tumour cell growth, NCI panel, 48 h
HL-60 = system: HL-60
SF-295 = system: SF-295
NCI-H522 = system: NCI-H522
HOP-92 = system: HOP-92
NCI/ADR-RES = system: NCI/ADR-RES
COLO 205 = system: COLO 205
SW-620 = system: SW-620
U-251 = system: U-251
TK-10 = system: TK-10
KM12 = system: KM12
NCI-H226 = system: NCI-H226
HCT-15 = system: HCT-15
PC-3 = system: PC-3
OVCAR-8 = system: OVCAR-8
HOP-62 = system: HOP-62
A498 = system: A498
SNB-75 = system: SNB-75
M14 = system: M14
SK-MEL-28 = system: SK-MEL-28
SN12C = system: SN12C
MDA-MB-231 = system: MDA-MB-231
MDA-MB-435 = system: MDA-MB-435
LOX IMVI = system: LOX IMVI
SR = system: SR
UO-31 = system: UO-31
OVCAR-5 = system: OVCAR-5
CCRF-CEM = system: CCRF-CEM
MCF7 = system: MCF7
NCI-H23 = system: NCI-H23
NCI-H460 = system: NCI-H460
MDA-N = system: MDA-N
BT-549 = system: BT-549
DU-145 = system: DU-145
RPMI-8226 = system: RPMI-8226
ACHN = system: ACHN
OVCAR-4 = system: OVCAR-4
UACC-62 = system: UACC-62
MOLT-4 = system: MOLT-4
Malme-3M = system: Malme-3M
SK-OV-3 = system: SK-OV-3
T47D = system: T47D
SK-MEL-5 = system: SK-MEL-5
RXF 393 = system: RXF 393
OVCAR-3 = system: OVCAR-3
CAKI-1 = system: CAKI-1
SNB-19 = system: SNB-19
HCT-116 = system: HCT-116
IGROV-1 = system: IGROV-1
Hs-578T = system: Hs-578T
A549 = system: A549
SF-539 = system: SF-539
SF-268 = system: SF-268
EKVX = system: EKVX
786-0 = system: 786-0
UACC-257 = system: UACC-257
K562 = system: K562

CC(=O)O[C@H]1C[C@H]2[C@@H](OC(C)=O)/C=C3\C[C@](C)(C(=O)[C@H](O)C(=C1C)C2(C)C)[C@@H](O)C[C@@H]3OC(=O)[C@H](O)[C@H](c1ccccc1)N(C)C was tested, and the GI50 (HL-60) was > 100 µM (inactive), the GI50 (SF-295) was > 100 µM (inactive) and the GI50 (NCI-H522) was > 100 µM (inactive). For the same molecule, the GI50 (HOP-92) was > 100 µM (inactive), the GI50 (NCI/ADR-RES) was > 100 µM (inactive) and the GI50 (COLO 205) was > 100 µM (inactive). For the same molecule, the GI50 (SW-620) was > 100 µM (inactive), the GI50 (U-251) was > 100 µM (inactive) and the GI50 (TK-10) was > 100 µM (inactive). The GI50 (KM12) was > 100 µM (inactive), the GI50 (NCI-H226) was > 100 µM (inactive) and the GI50 (HCT-15) was > 100 µM. The GI50 (PC-3) was > 100 µM (inactive), the GI50 (OVCAR-8) was > 100 µM (inactive) and the GI50 (HOP-62) was > 100 µM (inactive). The GI50 (A498) was > 100 µM (inactive), the GI50 (SNB-75) was > 100 µM (inactive) and the GI50 (M14) was > 100 µM (inactive). For the same molecule, the GI50 (SK-MEL-28) was > 100 µM (inactive), the GI50 (SN12C) was > 100 µM (inactive) and the GI50 (MDA-MB-231) was > 100 µM (inactive). The GI50 (MDA-MB-435) was > 100 µM (inactive), the GI50 (LOX IMVI) was > 100 µM (inactive) and the GI50 (SR) was > 100 µM (inactive). For the same molecule, the GI50 (UO-31) was > 100 µM (inactive), the GI50 (OVCAR-5) was > 100 µM (inactive) and the GI50 (CCRF-CEM) was > 100 µM (inactive). For the same molecule, the GI50 (MCF7) was > 100 µM (inactive), the GI50 (NCI-H23) was > 100 µM (inactive) and the GI50 (NCI-H460) was > 100 µM (inactive). The GI50 (MDA-N) was > 100 µM (inactive), the GI50 (BT-549) was > 100 µM (inactive) and the GI50 (DU-145) was > 100 µM (inactive). The GI50 (RPMI-8226) was > 100 µM (inactive), the GI50 (ACHN) was > 100 µM (inactive) and the GI50 (OVCAR-4) was > 100 µM (inactive). The GI50 (UACC-62) was > 100 µM (inactive), the GI50 (MOLT-4) was > 100 µM (inactive) and the GI50 (Malme-3M) was > 100 µM (inactive). For the same molecule, the GI50 (SK-OV-3) was > 100 µM (inactive), the GI50 (T47D) was > 100 µM (inactive) and the GI50 (SK-MEL-5) was > 100 µM (inactive). The GI50 (RXF 393) was > 100 µM (inactive), the GI50 (OVCAR-3) was > 100 µM (inactive) and the GI50 (CAKI-1) was > 100 µM (inactive). For the same molecule, the GI50 (SNB-19) was > 100 µM (inactive), the GI50 (HCT-116) was > 100 µM (inactive) and the GI50 (IGROV-1) was > 100 µM (inactive). For the same molecule, the GI50 (Hs-578T) was > 100 µM (inactive), the GI50 (A549) was > 100 µM (inactive) and the GI50 (SF-539) was > 100 µM (inactive). The GI50 (SF-268) was > 100 µM (inactive), the GI50 (EKVX) was > 100 µM (inactive) and the GI50 (786-0) was > 100 µM (inactive). The GI50 (UACC-257) was > 100 µM (inactive) and the GI50 (K562) was > 100 µM (inactive).
